Test results: the NIST ThermoML archive (doi:10.1016/j.fluid.2016.02.031)

Assay: xn = mol fraction of the nth substance listed
Details: 100 kPa, Liquid; for viscosity: Concentric cylinders viscometry; for mass density: Vibrating tube method

OCCCO [propan-1,3-diol] + CCC(C)=O
Details	mass density [kg/m3]	viscosity [mPa·s]
288.15 K, x1 = 0.1052	834.263	0.5783
288.15 K, x1 = 0.2004	855.981	0.8238
288.15 K, x1 = 0.3002	879.545	1.258
288.15 K, x1 = 0.4003	904.311	2.132
288.15 K, x1 = 0.4999	929.443	3.633
288.15 K, x1 = 0.5992	954.483	6.313
288.15 K, x1 = 0.6992	979.932	11.18
288.15 K, x1 = 0.7989	1003.76	20.31
288.15 K, x1 = 0.8998	1028.39	37.46
288.15 K, x1 = 1	1055.96	68.06
293.15 K, x1 = 0.1052	829.229	0.5513
293.15 K, x1 = 0.2004	851.106	0.7652
293.15 K, x1 = 0.3002	874.858	1.144
293.15 K, x1 = 0.4003	899.864	1.889
293.15 K, x1 = 0.4999	925.2	3.143
293.15 K, x1 = 0.5992	950.438	5.35
293.15 K, x1 = 0.6992	976.1	9.291
293.15 K, x1 = 0.7989	1000.12	16.48
293.15 K, x1 = 0.8998	1024.96	29.8
293.15 K, x1 = 1	1052.87	52.75
298.15 K, x1 = 0.1052	824.172	0.5185
298.15 K, x1 = 0.2004	846.22	0.714
298.15 K, x1 = 0.3002	870.166	1.046
298.15 K, x1 = 0.4003	895.391	1.688
298.15 K, x1 = 0.4999	920.936	2.744
298.15 K, x1 = 0.5992	946.376	4.578
298.15 K, x1 = 0.6992	972.256	7.804
298.15 K, x1 = 0.7989	996.448	13.57
298.15 K, x1 = 0.8998	1021.51	24.01
298.15 K, x1 = 1	1049.76	41.97
303.15 K, x1 = 0.1052	819.09	0.4891
303.15 K, x1 = 0.2004	841.328	0.6674
303.15 K, x1 = 0.3002	865.461	0.9604
303.15 K, x1 = 0.4003	890.9	1.517
303.15 K, x1 = 0.4999	916.653	2.414
303.15 K, x1 = 0.5992	942.296	3.957
303.15 K, x1 = 0.6992	968.392	6.624
303.15 K, x1 = 0.7989	992.685	11.3
303.15 K, x1 = 0.8998	1018	19.67
303.15 K, x1 = 1	1046.64	33.56
308.15 K, x1 = 0.1052	813.976	0.4633
308.15 K, x1 = 0.2004	836.391	0.6247
308.15 K, x1 = 0.3002	860.732	0.8841
308.15 K, x1 = 0.4003	886.382	1.379
308.15 K, x1 = 0.4999	912.346	2.141
308.15 K, x1 = 0.5992	938.196	3.447
308.15 K, x1 = 0.6992	964.512	5.663
308.15 K, x1 = 0.7989	989.056	9.517
308.15 K, x1 = 0.8998	1014.59	16.21
308.15 K, x1 = 1	1043.5	27.15
313.15 K, x1 = 0.1052	808.832	0.4382
313.15 K, x1 = 0.2004	831.418	0.5847
313.15 K, x1 = 0.3002	855.978	0.8163
313.15 K, x1 = 0.4003	881.838	1.237
313.15 K, x1 = 0.4999	908.015	1.909
313.15 K, x1 = 0.5992	934.073	3.025
313.15 K, x1 = 0.6992	960.613	4.879
313.15 K, x1 = 0.7989	985.317	8.064
313.15 K, x1 = 0.8998	1011.06	13.49
313.15 K, x1 = 1	1040.35	22.22
318.15 K, x1 = 0.1052	803.661	0.4141
318.15 K, x1 = 0.2004	826.427	0.548
318.15 K, x1 = 0.3002	851.191	0.7557
318.15 K, x1 = 0.4003	877.271	1.127
318.15 K, x1 = 0.4999	903.664	1.711
318.15 K, x1 = 0.5992	929.93	2.671
318.15 K, x1 = 0.6992	956.69	4.237
318.15 K, x1 = 0.7989	981.556	6.885
318.15 K, x1 = 0.8998	1007.51	11.33
318.15 K, x1 = 1	1037.18	18.35
323.15 K, x1 = 0.1052	798.453	0.3908
323.15 K, x1 = 0.2004	821.409	0.5165
323.15 K, x1 = 0.3002	846.386	0.7008
323.15 K, x1 = 0.4003	872.674	1.03
323.15 K, x1 = 0.4999	899.282	1.542
323.15 K, x1 = 0.5992	925.759	2.372
323.15 K, x1 = 0.6992	952.744	3.702
323.15 K, x1 = 0.7989	977.808	5.939
323.15 K, x1 = 0.8998	1004.01	9.603
323.15 K, x1 = 1	1033.98	15.29
328.15 K, x1 = 0.1052	793.206	0.3682
328.15 K, x1 = 0.2004	816.363	0.484
328.15 K, x1 = 0.3002	841.54	0.6507
328.15 K, x1 = 0.4003	868.041	0.9438
328.15 K, x1 = 0.4999	894.87	1.393
328.15 K, x1 = 0.5992	921.56	2.121
328.15 K, x1 = 0.6992	948.774	3.257
328.15 K, x1 = 0.7989	974.119	5.165
328.15 K, x1 = 0.8998	1000.59	8.217
328.15 K, x1 = 1	1030.77	12.84
333.15 K, x1 = 0.1052	787.917	0.3461
333.15 K, x1 = 0.2004	811.298	0.4456
333.15 K, x1 = 0.3002	836.659	0.6058
333.15 K, x1 = 0.4003	863.375	0.8671
333.15 K, x1 = 0.4999	890.43	1.271
333.15 K, x1 = 0.5992	917.332	1.911
333.15 K, x1 = 0.6992	944.777	2.894
333.15 K, x1 = 0.7989	970.698	4.581
333.15 K, x1 = 0.8998	997.503	7.128
333.15 K, x1 = 1	1027.53	10.96
